{"source": "patent US4847303A", "about": "“Tert-butylphenyl compounds useful as anti-inflammatory agents” (The Procter & Gamble Company, priority 1987, dated 1989)"}
{"test_system": "Carrageenan Rat Paw Edema", "test": "Carrageenan Rat Paw Edema Test", "assay_type": "in vivo, rat (male Sprague-Dawley)", "details": "100 mg/kg P.O.; carrageenan 1 h after dosing, paw volume 4 h after carrageenan; all values statistically significant from control at P ≤ 0.05", "method": "Carrageenan Rat Paw Edema Test\nMale Sprague-Dawley rats (Charles River Laboratories) are weighed and food fasted overnight. The animals are then divided into four to six groups of six animals each according to body weights (average about 145 g) so that each group has about the same average body weight (within 10 g).\nThe following morning animals are dosed with the test compound and then placed in individual cages. For oral dosing, the drug is suspended in 0.5% methyl cellulose with 2% Tween 80, and delivered via stomach tube in a 5 ml volume.\nPaw volumes (0 time) are determined on both hind paws with a mercury displacement device equipped with a transducer and digitizer. One hour after dosing the test compound, the animals are placed in a plastic restrainer and 50 ul of a 1% (w/w) carrageenan solution in 0.9% saline is injected into the ventral surface of the left rear paw. Four hours after the carrageenan injection, the paw volumes are again determined.\nThe results are expressed as percent inhibition of the mean paw volume of the test group relative to the control group. Statistical differences are determined by one way analysis of variance.", "units": {"Percent Inhibition at 100 mg/kg dosed P.O (mean paw volume of the test group relative to the control group)": "%"}}
{"smiles": "C#CCCCC(=O)c1cc(C)c(O)c(C(C)(C)C)c1", "note": "[Example 1, 2-methyl-4-(5'-hexynoyl)-6-t-butylphenol]", "Percent Inhibition at 100 mg/kg dosed P.O (mean paw volume of the test group relative to the control group)": 75.4}
{"smiles": "C#CCCCC(=O)c1cc(C(C)(C)C)c(O)c(C(C)(C)CO)c1", "note": "[Example 2, 2-(2-hydroxy-1,1-dimethyl-ethyl)-4-(5'-hexynoyl)-6-t-butylphenol]", "Percent Inhibition at 100 mg/kg dosed P.O (mean paw volume of the test group relative to the control group)": 48.4}
{"smiles": "C#CCCCC(=O)c1cc(CC=C)c(O)c(C(C)(C)C)c1", "note": "[Example 3, 1-Allyl-4-(5'-hexynoyl)-6-t-butylphenol]", "Percent Inhibition at 100 mg/kg dosed P.O (mean paw volume of the test group relative to the control group)": 65.8}
{"smiles": "C#CCCCC(=O)c1cc(CCC)c(O)c(C(C)(C)C)c1", "note": "[Example 4, 2-n-propyl-4-(5'-hexynoyl)-6-t-butylphenol]", "Percent Inhibition at 100 mg/kg dosed P.O (mean paw volume of the test group relative to the control group)": 53.2}
{"smiles": "C#CCCCC(=O)c1cc(C(C)C=C)c(O)c(C(C)(C)C)c1", "note": "(stereo not drawn) [Example 5, 2-s-(3-butenyl)-4-(5'-hexynoyl)-6-t-butylphenol]", "Percent Inhibition at 100 mg/kg dosed P.O (mean paw volume of the test group relative to the control group)": 90.8}
{"smiles": "C#CCCCC(=O)c1cc(C(C)CC)c(O)c(C(C)(C)C)c1", "note": "(stereo not drawn) [Example 6, 2-s-butyl-4-(5'-hexynoyl)-6-t-butylphenol]", "Percent Inhibition at 100 mg/kg dosed P.O (mean paw volume of the test group relative to the control group)": 51.5}
